Here are results for ten compounds from ChEMBL document CHEMBL4665827, “Discovery of Small-Molecule Inhibitors of Receptor Activator of Nuclear Factor-κB Ligand with a Superior Therapeutic Index” (J Med Chem, 2020).

Series [1] in a line: Therapeutic index, ratio of LC50 for mouse bone marrow cells to IC50 for Inhibition of human RANKL-induced osteoclastogenesis in RANKL cultured mouse bone marrow cells. Format: toxicity. Particulars: read-out: Ratio LC50/IC50.
For series [2], the target named is T1, Tumor necrosis factor ligand superfamily member 11 (Homo sapiens, UniProt O14788).
T1 sequence (O14788 whole entry): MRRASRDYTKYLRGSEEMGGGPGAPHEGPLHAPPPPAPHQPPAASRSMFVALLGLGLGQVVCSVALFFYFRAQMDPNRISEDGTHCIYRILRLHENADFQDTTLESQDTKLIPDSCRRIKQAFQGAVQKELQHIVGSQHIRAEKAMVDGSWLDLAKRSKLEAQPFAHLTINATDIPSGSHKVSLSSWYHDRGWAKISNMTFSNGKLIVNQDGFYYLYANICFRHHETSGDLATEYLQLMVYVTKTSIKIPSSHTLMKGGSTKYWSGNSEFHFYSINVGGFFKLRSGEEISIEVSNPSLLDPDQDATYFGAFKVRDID
The experiment in a line: Binding affinity to GST-fused human RANKL extracellular domain (Lys159 to Asp317 residues) expressed in Escherichia coli BL21(DE3) pLysS by fluorescence spectrophotometric assay. Particulars: read-out: Kd.

Series [3] in a line: Cytotoxicity against mouse BMMC assessed as reduction in cell viability measured after 48 hrs by MTT assay. Format: cell-based. Particulars: mouse BMMC (bone marrow cells), read-out: LC50.
Series [4] concerns the target T2, Tumor necrosis factor ligand superfamily member 11 (Homo sapiens) (UniProt O14788).
T2 sequence (whole entry): T1 sequence (O14788 whole entry)
The experiment in a line: Inhibition of human RANKL-induced osteoclastogenesis in RANKL cultured mouse bone marrow cells assessed as reduction in RANKL/M-CSF-induced TRAP activity at 5 uM preincubated with RANKL for 1 hr followed by cell addition and subsequent media replenishment every 48 hrs for 4 days. Particulars: time 4.0 day. Format: cell-based.

Series [5] deals with T2, Tumor necrosis factor ligand superfamily member 11 (Homo sapiens). As to the kind of experiment: Inhibition of human RANKL-induced osteoclastogenesis in RANKL cultured mouse bone marrow cells assessed as reduction in RANKL/M-CSF-induced TRAP activity preincubated with RANKL for 1 hr followed by cell addition and subsequent media replenishment every 48 hrs for 4 days. Format: cell-based. Particulars: time 4.0 day.

Series [6] shares this target. The experiment in a line: Inhibition of RANKL (unknown origin) in RANKL cultured mouse RAW264.7 cells assessed as reduction in RANKL/RANK-interaction mediated NFATc1 expression by measuring NFATc1 protein expression at 10 uM preincubated for 1 hr followed by cell culture addition and measured after 2 days by Western blot analysis relative to positive control (reference value: 1). Format: cell-based. Particulars: time 49.0 hrs.

A short description of series [7]: Effect on osteoblast differentiation in mouse MC3T3-E1 cells assessed as change in ALP activity at 2 to 10 uM with media replenishment every 3 days for 14 days. Format: ADME, cell-based. Particulars: mc3t3-e1, 336 h, dose 2-10 µM, time 14 day.
Series [8] concerns the target T2, Tumor necrosis factor ligand superfamily member 11 (Homo sapiens). As to the kind of experiment: Inhibition of RANKL (unknown origin) in RANKL cultured mouse RAW264.7 cells assessed as reduction in RANKL/RANK-interaction mediated cFOS expression by measuring cFOS protein expression at 10 uM preincubated for 1 hr followed by cell culture addition and measured after 2 days by Western blot analysis relative to positive control (reference value: 1). Format: cell-based. Particulars: time 49.0 hrs. On the technique in general: In western blotting, separated proteins are transferred to a membrane and probed.

Series [9] has the same target. As to the kind of experiment: Inhibition of human RANKL-induced osteoclastogenesis in RANKL cultured mouse bone marrow cells assessed as reduction in phalloidin-labeled actin ring formation preincubated with RANKL for 1 hr followed by cell addition and subsequent media replenishment every 48 hrs for 4 days by Alexa Fluor 488-conjugated phalloidin/DAPI-staining based fluorescence microscopic analysis.

The target is the same in series [10]. The experiment in a line: Inhibition of human soluble RANKL trimerization assessed as increase in RANKL monomer level at 1:3 ratio of DSS to RANKL preincubated for 1 hr followed by DSS addition and measured after 1 hr by SDS-PAGE analysis. Particulars: time 2.0 hrs.
Series [11] has the same target. As to the kind of experiment: Inhibition of RANKL (unknown origin) in RANKL cultured mouse RAW264.7 cells assessed as reduction in RANKL/RANK-interaction mediated cFOS expression by measuring cFOS protein expression at 2 uM preincubated for 1 hr followed by cell culture addition and measured after 2 days by Western blot analysis relative to positive control (reference value: 1). Format: cell-based. Particulars: time 49.0 hrs.

Series [12] shares this target. The experiment in a line: Inhibition of RANKL (unknown origin) in RANKL cultured mouse RAW264.7 cells assessed as reduction in RANKL/RANK-interaction mediated cFOS expression by measuring cFOS protein expression at 5 uM preincubated for 1 hr followed by cell culture addition and measured after 2 days by Western blot analysis relative to positive control (reference value: 1). Format: cell-based. Particulars: time 49.0 hrs.

Series [13] has the same target. As to the kind of experiment: Inhibition of RANKL (unknown origin) in RANKL cultured mouse RAW264.7 cells assessed as reduction in RANKL/RANK-interaction mediated NFATc1 expression by measuring NFATc1 protein expression at 2 uM preincubated for 1 hr followed by cell culture addition and measured after 2 days by Western blot analysis relative to positive control (reference value: 1). Format: cell-based. Particulars: time 49.0 hrs.

For series [14] the target is unchanged. The experiment in a line: Inhibition of RANKL (unknown origin) in RANKL cultured mouse RAW264.7 cells assessed as reduction in RANKL/RANK-interaction mediated NFATc1 expression by measuring NFATc1 protein expression at 5 uM preincubated for 1 hr followed by cell culture addition and measured after 2 days by Western blot analysis relative to positive control (reference value: 1). Format: cell-based. Particulars: time 49.0 hrs.

For a further series, the system named is BMMC. As to the kind of experiment: Cytotoxicity against mouse BMMC assessed as reduction in cell viability at 5 uM measured after 48 hrs by MTT assay. Format: cell-based. (In general: Tetrazolium dyes change colour on reduction, which living cells bring about.)
In series [15] the target is T2, Tumor necrosis factor ligand superfamily member 11 (Homo sapiens). As to the kind of experiment: Inhibition of RANKL (unknown origin) in RANKL cultured mouse RAW264.7 cells assessed as reduction in RANKL/RANK-interaction mediated cFOS expression at 2 to 10 uM preincubated for 1 hr followed by cell culture addition and measured after 2 days by Western blot analysis. Particulars: dose microM 2-10, time 49.0 hrs. Format: cell-based.

Series [16] has the same target. As to the kind of experiment: Potency index, ratio of SPD-304 Kd to test compound Kd for binding affinity to GST-fused human RANKL extracellular domain (Lys159 to Asp317 residues) expressed in Escherichia coli BL21(DE3) pLysS by fluorescence spectrophotometric assay.
Series [17] shares this target. The experiment in a line: Inhibition of RANKL (unknown origin) in RANKL cultured mouse RAW264.7 cells assessed as reduction in RANKL/RANK-interaction mediated NFATc1 expression at 2 to 10 uM preincubated for 1 hr followed by cell culture addition and measured after 2 days by Western blot analysis. Format: cell-based. Particulars: dose microM 2-10, time 49.0 hrs.
Series [18] shares this target. As to the kind of experiment: Inhibition of human soluble RANKL trimerization assessed as increase in RANKL monomer level at 1:3 to 1:10 ratio of DSS to RANKL preincubated for 1 hr followed by DSS addition and measured after 1 hr by SDS-PAGE analysis. Particulars: time 2.0 hrs.
Series [19] has the same target. The experiment in a line: Inhibition of human soluble RANKL trimerization assessed as increase in RANKL monomer level preincubated for 1 hr followed by DSS addition and measured after 1 hr by SDS-PAGE analysis. Particulars: time 2.0 hrs.
The target is the same in series [20]. As to the kind of experiment: Inhibition of human RANKL-induced osteoclastogenesis in RANKL cultured mouse bone marrow cells assessed as reduction in phalloidin-labeled actin ring formation at 5 to 10 uM preincubated with RANKL for 1 hr followed by cell addition and subsequent media replenishment every 48 hrs for 4 days by Alexa Fluor 488-conjugated phalloidin/DAPI-staining based fluorescence microscopic analysis. Particulars: dose microM 5-10, time 4.0 day.

Series [21] has the same target. The experiment in a line: Inhibition of human RANKL-induced osteoclastogenesis in RANKL cultured mouse bone marrow cells assessed as reduction in RANKL/M-CSF-induced TRAP activity at 5 to 10 uM preincubated with RANKL for 1 hr followed by cell addition and subsequent media replenishment every 48 hrs for 4 days. Format: cell-based. Particulars: dose microM 5-10, time 4.0 day.

Active and inactive are the calls of the source. The rule behind the calls is not given here. Bounds are passed on as bounds.

With `CN(CCN(C)C(=O)c1cn(S(=O)(=O)c2cccc([N+](=O)[O-])c2)c2ccccc12)C(=O)c1coc2ccccc2c1=O`, the selectivity ratio in series [1] was 6.3. For the same compound, in [2], the Kd (in general, the concentration at which binding is half-saturated) is 4.6 µM. Besides, the CC50 at 48 h in [3] was 32.2 µM. Moreover, the inhibition (in general, the percentage by which the read-out fell short of the control) was 100% in series [4] and “Dose-dependent effect” in series [5].
Turning to `CN(CCN(C)C(=O)c1cn(-c2cccc([N+](=O)[O-])c2)c2ccccc12)C(=O)c1coc2ccccc2c1=O`, the fold change (FC) in series [6] is 0.39; in series [8], 0.48; in [11], 0.58; in series [12], 0.56; in series [13] it was 0.66; in [14], 0.52. In addition, the Activity result in series [7] is recorded as “Non-Toxic”. The selectivity ratio in [1] came to 27.8. Further, the inhibition entry was “Dose-dependent effect” in series [9], 100% in series [4] and “Dose-dependent effect” in series [5]. Besides, the Kd in [2] was determined as 2.18 µM. For the same compound, the CC50 at 48 h in [3] amounted to 44.2 µM. Moreover, the inhibition entry in series [10] was “Active”.
Turning to `Cc1cc2occ(CN(C)CCN(C)Cc3cn(S(=O)(=O)c4ccccc4)c4ccccc34)c(=O)c2cc1C`, in [2], the Kd came to 8.71 µM. The Activity result in the series on BMMC was “Toxic”.
Take `CN(CCN(C)S(=O)(=O)c1cccc([N+](=O)[O-])c1)C(=O)c1cn(S(=O)(=O)c2cccc([N+](=O)[O-])c2)c2ccccc12`: in series [1], the selectivity ratio is 9.5. Also, the CC50 at 48 h in series [3] came to 18.3 µM.
In the case of `CN(CCN(C)C(=O)c1cn(S(=O)(=O)c2ccccc2)c2ccccc12)C(=O)c1coc2ccccc2c1=O`, in series [7], the Activity entry is “Non-Toxic”. The selectivity ratio in series [1] amounted to 21.8. Further, the inhibition result in series [15] and in series [17] was “Active” each time. The Kd in series [2] was 4.6 µM. For the same compound, in series [3], the CC50 at 48 h came out at 62.3 µM. In addition, the Ratio in series [16] was determined as 3. In addition, the results for the inhibition in [4] and in [5] were 100% and “Dose-dependent effect”, respectively.
As to `O=C(c1cn(S(=O)(=O)c2cccc([N+](=O)[O-])c2)c2ccccc12)N1CCN(S(=O)(=O)c2ccccc2)CC1`, the fold change (FC) in series [6] worked out at 0.34; in [8], 0.56; in [11] it was 0.91; in [12] it was 0.63; in series [13], 0.82; in series [14], 0.57. Besides, the selectivity ratio in [1] amounted to 84.8. Also, the CC50 at 48 h in [3] amounted to 123 µM.
Regarding `Cc1ccc2occ(CN(C)CCN(C)Cc3cn(S(=O)(=O)c4ccccc4)c4ccccc34)c(=O)c2c1`, the Kd in [2] came to 6.62 µM. Moreover, the Activity entry in the series with BMMC is listed as “Toxic”.
On to `CN(CCN(C)S(=O)(=O)c1ccc(C#N)cc1)C(=O)c1cn(S(=O)(=O)c2cccc([N+](=O)[O-])c2)c2ccccc12`, for which, in [1], the selectivity ratio was more than 250. Besides, in series [3], the CC50 at 48 h was more than 500 µM.
On to `Cc1cc2occ(CN(C)CCN(C)Cc3cn(-c4cccc(C(F)(F)F)c4)c4ccccc34)c(=O)c2cc1C`, for which the selectivity ratio in series [1] was 3.2. Also, the CC50 at 48 h in [3] was 3.2 µM. Also, the inhibition entry in [18] was “Active”. In addition, in [5], the inhibition result was “Dose-dependent effect”. Moreover, the Activity entry with BMMC is “Toxic”.
Regarding `CN(CCN(C)Cc1cn(S(=O)(=O)c2ccccc2)c2ccccc12)Cc1coc2ccccc2c1=O`, the inhibition entry in [19] is “Dose-dependent effect”; in series [4] it was 100%; in series [5], “Dose-dependent effect”. The Activity result in series [7] is listed as “Non-Toxic”. For the same compound, in [1], the selectivity ratio worked out at 23.4. The inhibition entry in series [20] and in series [21] was “Active” throughout. Also, the Kd in series [2] was found to be 5.24 µM. The CC50 at 48 h in series [3] stood at 58.5 µM. Also, in [16], the Ratio amounted to 2.7.
